The source of these data is patent US9913901B2, “Combination therapy for treating HER2-positive cancers” (Merrimack Pharmaceuticals, Inc., priority 2012, dated 2018).

The data set has as its system human cardiomyocytes.

For `COc1cccc2c1C(=O)c1c(O)c3c(c(O)c1C2=O)C[C@@](O)(C(=O)CO)C[C@@H]3O[C@H]1C[C@H](N)[C@H](O)[C@H](C)O1` [free doxorubicin, (8S,10S)-10-(4-amino-5 hydroxy-6-methyl-tetrahydro-2H-pyran-2-yloxy)-6,8,11-trihydroxy-8-(2-hydroxyacetyl)-1-methoxy-7,8,9,10-tetrahydrotetracene-5,12-dione], the “level of uptake into human cardiomyocytes” value is “relatively much higher compared to both MM-302 and untargeted pegylated liposomal doxorubicin”.
